Values after ≈ are worked out from the molar mass of the structure shown. “Also recorded” adds a separate entry of the source. Non-standard residues stand in square brackets, D forms with d. Residues, ends and D or L forms follow the SMILES beside them. Aib = CC(C)(N)C(=O)O
What was measured:
[1] = system: A. baumanii YQ4; assay: induction of resistance through serial passage; conditions: sub-MIC exposure, 55 passages
[2] = system: plasmid pUC18; assay: DNA-binding assay, gel retardation
Procedure: Gel retardation experiments were conducted as previously described (Yan et al., [2013]). Briefly, 300 ng of the plasmid pUC18 was mixed with different concentrations of COG1410 in 30 μl of buffer (10 mM Tris-HCl and 1 mM EDTA buffer, pH 8.0) and incubated at room temperature for 30 min. The reaction mixtures were mixed with 1 × native loading buffer and subjected to 1.5% agarose gel electrophoresis. The migration of DNA was detected by the fluorescence of GelRed dye.

[3] = system: A. baumannii; conditions: 1× MIC, PBS, 2 h
[4] = system: panel of Gram-positive and Gram-negative strains; assay: MIC on a panel of strains; format: cell-based; conditions: Streptococcus pneumoniae, methicillin-sensitive S. aureus, MRSA, Klebsiella pneumoniae, Pseudomonas aeruginosa
Procedure: The antimicrobial activity of COG1410 was determined by measuring the minimal inhibition concentration (MIC) values on a panel of Gram-positive and Gram-negative strains (Table 1).

[5] = cytotoxicity assay, Cell Counting Kit 8; conditions: human, L02 cells (human hepatic, normal liver cell)
Procedure: Briefly, 100 μl of human hepatic L02 cells was seeded in the 96-well plate with 4 × 10^3 per well in RPMI-1640 medium containing 20% FBS and incubated at 37°C in a 5% CO2 atmosphere for 24 h. The cells without exposure to peptides were used as a negative control. Then, the L02 cells were incubated with different concentrations of COG1410 for another 24 h. Then, 10 μl of CCK8 solution was added to each well. After 2 h of incubation, the optical absorbance at 450 nm was measured with a BioTek synergy H1 plate reader. […] The experiments were done in triplicate.

[6] = system: A. baumannii YQ4; assay: Live/Dead BacLight SYTO-9/PI staining, confocal microscopy; format: cell-based, Acinetobacter baumannii; conditions: 1× MIC COG1410 (16 μg/ml) or 5× MIC polymyxin B (80 μg/ml), 37°C, 30 min
Procedure: The damage to the cytoplasmic membrane was determined as described previously (Farkas et al., [2017]), with the Live/Dead BacLight bacterial viability kit (Invitrogen L7012). The log-phase culture of A. baumannii YQ4 was washed two times and suspended in PBS with the final OD600 of 0.1. […] Then, the cells were stained with 7.5 μM SYTO-9 and 30 μM propidium iodide (PI) in dark for 15 min. In total, 5 μl of culture was spotted on a clean slide coated with a thin layer of 1% agarose. The fluorescence was observed by Olympus FV3000 confocal laser scanning microscope. For SYTO-9, the excitation and emission were 483 and 503 nm, respectively. For PI, the excitation and emission were 493 and 636 nm, respectively.

[7] = system: Porphyromonas gingivalis ATCC33277
[8] = system: Caenorhabditis elegans (Bristol N2) infected with A. baumannii YQ4; assay: nematode killing assay, C. elegans infection model; conditions: 16 μg/ml COG1410 in NGM plate, versus untreated group
[9] = system: human red blood cell (RBC); conditions: 1 h
Procedure: The anti-coagulated (citrate) whole blood sample was pelleted by centrifugation at 700 g for 8 min, washed three times with PBS, and suspended in 0.5% (vol/vol) PBS. […] The highest concentration was 512 μg/ml (363 μM). PBS and Triton X-100 (0.1%) were used as negative and positive controls, respectively. The plate was incubated at 37°C for 1 h, followed by centrifugation at 1,000 rpm for 5 min at 4°C. Aliquots of 60 μl of the supernatant from each well were quickly transferred to a new flat-bottom 96-well plate. The optical absorbance at OD414 was measured with a microplate reader (BioTek, synergy H1). The hemolysis percentage was then normalized with respect to the averaged negative (0%) and positive (100%) controls. Three independent experiments were conducted.

[10] = system: PDR Acinetobacter baumannii YQ4; assay: microbe, parasite or virus in culture; format: cell-based
Procedure: Strain stocks were maintained at −80°C in 10% glycerol. Bacteria were streaked on fresh plates before each experiment. Most of them were cultured in LB broth containing 10 g/L NaCl at 37°C, except for Mycobacteria in 7H9 broth and Enterococcus in BHI broth. Porphyromonas gingivalis was cultured in BHI broth supplemented with 1 μg/ml vitamin k1, 5 μg/ml hemin, and 5 mg/ml L-cysteine hydrochloride at 37°C in the anaerobic chamber. The minimal inhibitory concentrations (MICs) of antimicrobials were determined using the microdilution method in the corresponding broth.
The pandrug-resistant A. baumannii YQ4 was collected from the clinical laboratory of the second hospital in Nanjing. The complete genome was sequenced by Nanopore, and the data were deposited in the GenBank with accession number CP053033.

[11] = system: Bacillus subtilis 168
[12] = system: methicillin-resistant Staphylococcus aureus 14–55; conditions: microdilution method in the corresponding broth
[13] = system: Mycobacterium tuberculosis H37Rv; conditions: microdilution method, 7H9 broth
[14] = system: A. baumannii YQ4; assay: transmission electron microscopy (TEM) of treated cells; conditions: 1× MIC (16 μg/ml), PBS, 37°C, 30 min
[15] = system: Escherichia coli ATCC25922
[16] = system: EBSL-producing Klebsiella pneumoniae YQ7; conditions: microdilution method in the corresponding broth
[17] = stability in human plasma, disk diffusion read-out; conditions: 100% human plasma, 10 mg/ml, 37°C, first 2 h; disk diffusion on A. baumannii YQ4, three independent experiments
Procedure: In order to determine the stability in human plasma, COG1410 was dissolved in1 ml of 100 % human plasma with the final concentration of 10 mg/ml and incubated at 37°C without shaking. Aliquots of 100 μl were taken at 0, 1, 2, 4, 6, 8, and 10 h. The log-phase culture of A. baumannii YQ4 was prepared as described above. About 200 μl of culture was mixed with 6 ml of 0.8% soft agar to make a two-layered plate. After air drying for 30 min, four 6-mm paper disks were placed on the top, and 6-μl aliquots of COG1410 at different time points were dropped on the paper disks. After 18 h of incubation at 37°C, the inhibition zones were recorded by a digital camera, and the inhibition diameters were measured by image J. Three independent experiments were performed.
About 10 mg/ml of COG1410 was incubated with 100% human plasma at 37°C and sampled at different time points. The stability of COG1410 was determined by evaluating the antibacterial activity against PDR A. baumannii YQ4 through the disk diffusion assay. The diameters of inhibition were measured. Three independent experiments were performed and data were represented as mean ± SD. The statistical significance between initial and different points was analyzed by Student's t-test. ^* indicated p < 0.05; ^*** indicated p < 0.001. Click here for additional data file.

[18] = system: MDR Enterobacter cloacae 7–86; conditions: microdilution method in the corresponding broth
[19] = system: A. baumannii YQ4; assay: dynamic time-kill assay in PBS
[20] = system: Acinetobacter baumannii ATCC19606
[21] = system: PDR Klebsiella pneumoniae 84; conditions: microdilution method in the corresponding broth
[22] = system: Mycobacterium smegmatis MC^2155; conditions: Mycobacterium MC^2155
[23] = system: A. baumannii YQ4 biofilm; assay: static biofilm inhibition, crystal violet; format: cell-based, Acinetobacter baumannii; conditions: 48 h
Procedure: Static biofilm inhibition was performed as described previously (Gaddy and Actis, [2009]). Briefly, the log-phase culture of A. baumannii YQ4 was prepared as described above. About 200 μl of culture was seeded in each cell of the 96-well PVC plate with OD600 of 0.01 (ca. 1 × 10^6 CFU/ml), which was exposed to different COG1410 solutions with the final concentrations ranging from 0.5 to 128 μg/ml. Each concentration was determined in eight wells. After incubation at 37°C for 48 h, the planktonic bacteria were removed by washing three times with sterilized water, followed by fixing in methanol for 15 min and staining with 0.1% crystal violet (CV) for 15 min. Excess CV was washed off, and the bound CV was eluted from the biofilm into 150 μl of 95% ethanol and quantitated spectrophotometrically at 600 nm using a Biotek Synergy H1 plate reader. The experiments were performed in triplicate.

CC(=O)N[C@@H](C)C(=O)N[C@@H](CO)C(=O)NC(C)(C)C(=O)N[C@@H](CC(C)C)C(=O)N[C@@H](CCCNC(=N)N)C(=O)N[C@@H](CCCCN)C(=O)N[C@@H](CC(C)C)C(=O)NC(C)(C)C(=O)N[C@@H](CCCCN)C(=O)N[C@@H](CCCNC(=N)N)C(=O)N[C@@H](CC(C)C)C(=O)N[C@@H](CC(C)C)C(N)=O [COG1410, acetyl-AS-Aib-LRKL-Aib-KRLL-amide] (Ac-AS[Aib]LRKL[Aib]KRLL-NH2)
increase of MIC after serial passage [1]: 4 fold
electrophoretic mobility of pUC18 ([2]; 1× MIC, 300 ng plasmid, 30 min room temperature, 1.5% agarose): only part of them migrated
electrophoretic mobility of pUC18 ([2]; higher concentrations than 1× MIC): completely retarded
A. baumannii population killed, in words [3]: almost complete elimination
antimicrobial activity in words [4]: inactive
EC50 at 24 h [5]: 58.9 µg/mL (≈ 41.8 µM)
SYTO-9/PI staining of treated cells [6]: red fluorescence
MIC [7]: 32 µg/mL (≈ 22.7 µM)
survival of infected nematodes [8]: alleviated the death of infected nematodes but not statistically significantly
EC50, lysis of half of the red blood cells [9]: 441 µg/mL
hemolysis ([9]; red cells of human, 128 μg/ml): < 5%
MIC ([10]; PDR YQ4): 11.3 µM
MIC ([10]; microdilution method, LB broth): 16 µg/mL
MIC [11]: 1 µg/mL (≈ 0.71 µM)
MIC [12]: >256 µg/mL
MIC [13]: 16 µg/mL (≈ 11.4 µM)
cell membrane integrity by TEM [14]: wrinkled and smaller compared with untreated cells
MIC [15]: 64 µg/mL (≈ 45.4 µM)
MIC [16]: >256 µg/mL
change of inhibition diameter / degradation [17]: did not significantly change; also recorded: does not seem to be significantly degraded
MIC [18]: 64 µg/mL (≈ 45.4 µM)
elimination of the inoculum ([19]; 5 × MIC (80 μg/ml), within 5 min, PBS, inoculum 1 × 10^8 CFU/ml): completely eliminated
time to eliminate large inocula ([19]; inocula 10^8 CFU/ml): ≤ 30 min
MIC [20]: 16 µg/mL (≈ 11.4 µM)
MIC [21]: >256 µg/mL
MIC [22]: 16 µg/mL (≈ 11.4 µM)
biofilm formation, in words ([23]; 1/2 MIC, crystal violet): significantly reduced biofilm formation
reduction of biofilm mass ([23]; 1× MIC, 37°C, crystal violet OD600, versus untreated control): 55%

Reference: PMC9445589, “Apolipoprotein E mimetic peptide COG1410 combats pandrug-resistant Acinetobacter baumannii” (Frontiers in Microbiology, 2022)
